# Measured values as given in the NIST ThermoML archive (doi:10.1016/j.fluid.2015.12.053).
# Numbers after ± are expanded uncertainties.
# Tests used:
# [1] = Liquid, Ebulliometric method (Recirculating still)
# [2] = wn = mass fraction of the nth substance listed; details: 100 kPa, Liquid, Pycnometric method
compound,measurement,setting,value
Cl.Nc1ccccc1 [aniline hydrochloride],vapor or sublimation pressure,[1]; 475.15 K,23.25 ± 0.18 kPa
same,vapor or sublimation pressure,[1]; 480.15 K,27.25 ± 0.2 kPa
same,vapor or sublimation pressure,[1]; 484.15 K,31.25 ± 0.2 kPa
same,vapor or sublimation pressure,[1]; 488.15 K,34.25 ± 0.25 kPa
same,vapor or sublimation pressure,[1]; 493.15 K,41.25 ± 0.61 kPa
same,vapor or sublimation pressure,[1]; 494.15 K,44.25 ± 0.42 kPa
same,vapor or sublimation pressure,[1]; 495.15 K,45.25 ± 0.25 kPa
same,vapor or sublimation pressure,[1]; 496.15 K,46.25 ± 0.31 kPa
same,vapor or sublimation pressure,[1]; 498.15 K,49.25 ± 0.37 kPa
same,vapor or sublimation pressure,[1]; 499.15 K,51.25 ± 0.39 kPa
same,vapor or sublimation pressure,[1]; 500.15 K,52.75 ± 0.39 kPa
same,vapor or sublimation pressure,[1]; 501.15 K,54.75 ± 0.39 kPa
same,vapor or sublimation pressure,[1]; 502.15 K,56.25 ± 0.46 kPa
same,vapor or sublimation pressure,[1]; 503.15 K,59 ± 0.43 kPa
same,vapor or sublimation pressure,[1]; 505.15 K,62.25 ± 0.46 kPa
same,vapor or sublimation pressure,[1]; 509.15 K,71.25 ± 0.53 kPa
same,vapor or sublimation pressure,[1]; 512.15 K,79.25 ± 0.6 kPa
same,vapor or sublimation pressure,[1]; 513.65 K,83.75 ± 0.66 kPa
same,vapor or sublimation pressure,[1]; 516.15 K,91.25 ± 0.73 kPa
same,vapor or sublimation pressure,[1]; 517.65 K,97.25 ± 0.75 kPa
same,vapor or sublimation pressure,[1]; 519.15 K,101.5 ± 0.81 kPa
same,vapor or sublimation pressure,[1]; 519.65 K,105.25 ± 1.1 kPa
same,vapor or sublimation pressure,[1]; 521.15 K,112.25 ± 1.1 kPa
same,vapor or sublimation pressure,[1]; 522.15 K,118.25 ± 1.3 kPa
same,vapor or sublimation pressure,[1]; 524.15 K,131.25 ± 1.3 kPa
same,vapor or sublimation pressure,[1]; 525.15 K,136.25 ± 1.1 kPa
same,vapor or sublimation pressure,[1]; 526.15 K,141.25 ± 1.3 kPa
same,vapor or sublimation pressure,[1]; 527.15 K,148.25 ± 1.5 kPa
Cl.Nc1ccccc1 [aniline hydrochloride] + O,mass density,"[2]; 298.15 K, w1 = 0.01",1000 ± 1 kg/m3
same,mass density,"[2]; 298.15 K, w1 = 0.05",1009.2 ± 0.3 kg/m3
same,mass density,"[2]; 298.15 K, w1 = 0.1",1018.9 ± 0.3 kg/m3
same,mass density,"[2]; 298.15 K, w1 = 0.15",1028.7 ± 0.3 kg/m3
same,mass density,"[2]; 298.15 K, w1 = 0.2",1038.5 ± 0.3 kg/m3
same,mass density,"[2]; 298.15 K, w1 = 0.3",1057.8 ± 0.3 kg/m3
same,mass density,"[2]; 298.15 K, w1 = 0.35",1068 ± 1 kg/m3
same,mass density,"[2]; 298.15 K, w1 = 0.4",1078.3 ± 0.3 kg/m3
same,mass density,"[2]; 303.15 K, w1 = 0.01",997.4 ± 0.3 kg/m3
same,mass density,"[2]; 303.15 K, w1 = 0.05",1007.3 ± 0.3 kg/m3
same,mass density,"[2]; 303.15 K, w1 = 0.1",1016.3 ± 0.3 kg/m3
same,mass density,"[2]; 303.15 K, w1 = 0.15",1026.6 ± 0.3 kg/m3
same,mass density,"[2]; 303.15 K, w1 = 0.2",1036.8 ± 0.3 kg/m3
same,mass density,"[2]; 303.15 K, w1 = 0.3",1056 ± 1 kg/m3
same,mass density,"[2]; 303.15 K, w1 = 0.35",1065.8 ± 0.3 kg/m3
same,mass density,"[2]; 303.15 K, w1 = 0.4",1075.6 ± 0.3 kg/m3
same,mass density,"[2]; 313.15 K, w1 = 0.01",994.3 ± 0.3 kg/m3
same,mass density,"[2]; 313.15 K, w1 = 0.05",1002.3 ± 0.3 kg/m3
same,mass density,"[2]; 313.15 K, w1 = 0.1",1012.3 ± 0.3 kg/m3
same,mass density,"[2]; 313.15 K, w1 = 0.15",1021.7 ± 0.3 kg/m3
same,mass density,"[2]; 313.15 K, w1 = 0.2",1031 ± 1 kg/m3
same,mass density,"[2]; 313.15 K, w1 = 0.3",1049.6 ± 0.3 kg/m3
same,mass density,"[2]; 313.15 K, w1 = 0.35",1059.7 ± 0.4 kg/m3
same,mass density,"[2]; 313.15 K, w1 = 0.4",1069.7 ± 0.4 kg/m3
same,mass density,"[2]; 323.15 K, w1 = 0.01",989.5 ± 0.3 kg/m3
same,mass density,"[2]; 323.15 K, w1 = 0.05",995.9 ± 0.3 kg/m3
same,mass density,"[2]; 323.15 K, w1 = 0.1",1007.3 ± 0.3 kg/m3
same,mass density,"[2]; 323.15 K, w1 = 0.15",1016.5 ± 0.3 kg/m3
same,mass density,"[2]; 323.15 K, w1 = 0.2",1025.8 ± 0.3 kg/m3
same,mass density,"[2]; 323.15 K, w1 = 0.3",1045.3 ± 0.4 kg/m3
same,mass density,"[2]; 323.15 K, w1 = 0.35",1055.1 ± 0.4 kg/m3
same,mass density,"[2]; 323.15 K, w1 = 0.4",1065 ± 1 kg/m3
same,mass density,"[2]; 323.15 K, w1 = 0.6",1107.5 ± 0.4 kg/m3
same,mass density,"[2]; 333.15 K, w1 = 0.01",985.6 ± 0.4 kg/m3
same,mass density,"[2]; 333.15 K, w1 = 0.05",991.2 ± 0.4 kg/m3
same,mass density,"[2]; 333.15 K, w1 = 0.1",1003.8 ± 0.4 kg/m3
same,mass density,"[2]; 333.15 K, w1 = 0.15",1012.8 ± 0.4 kg/m3
same,mass density,"[2]; 333.15 K, w1 = 0.2",1021.8 ± 0.4 kg/m3
same,mass density,"[2]; 333.15 K, w1 = 0.3",1040.6 ± 0.4 kg/m3
same,mass density,"[2]; 333.15 K, w1 = 0.35",1050.1 ± 0.4 kg/m3
same,mass density,"[2]; 333.15 K, w1 = 0.4",1059.6 ± 0.4 kg/m3
same,mass density,"[2]; 333.15 K, w1 = 0.6",1103.3 ± 0.4 kg/m3
same,mass density,"[2]; 343.15 K, w1 = 0.01",979.1 ± 0.4 kg/m3
same,mass density,"[2]; 343.15 K, w1 = 0.05",985.1 ± 0.4 kg/m3
same,mass density,"[2]; 343.15 K, w1 = 0.1",997.1 ± 0.4 kg/m3
same,mass density,"[2]; 343.15 K, w1 = 0.15",1005.9 ± 0.4 kg/m3
same,mass density,"[2]; 343.15 K, w1 = 0.2",1014.7 ± 0.4 kg/m3
same,mass density,"[2]; 343.15 K, w1 = 0.3",1033.5 ± 0.4 kg/m3
same,mass density,"[2]; 343.15 K, w1 = 0.35",1043 ± 1 kg/m3
same,mass density,"[2]; 343.15 K, w1 = 0.4",1052.5 ± 0.4 kg/m3
same,mass density,"[2]; 343.15 K, w1 = 0.6",1097.1 ± 0.5 kg/m3
same,mass density,"[2]; 353.15 K, w1 = 0.01",975.1 ± 0.4 kg/m3
same,mass density,"[2]; 353.15 K, w1 = 0.05",980.7 ± 0.4 kg/m3
same,mass density,"[2]; 353.15 K, w1 = 0.1",990.2 ± 0.5 kg/m3
same,mass density,"[2]; 353.15 K, w1 = 0.15",998.8 ± 0.5 kg/m3
same,mass density,"[2]; 353.15 K, w1 = 0.2",1007.4 ± 0.5 kg/m3
same,mass density,"[2]; 353.15 K, w1 = 0.3",1026.7 ± 0.5 kg/m3
same,mass density,"[2]; 353.15 K, w1 = 0.35",1036.3 ± 0.5 kg/m3
same,mass density,"[2]; 353.15 K, w1 = 0.4",1045.9 ± 0.5 kg/m3
same,mass density,"[2]; 353.15 K, w1 = 0.6",1087 ± 1 kg/m3
same,mass density,"[2]; 356.65 K, w1 = 0.01",965.4 ± 0.9 kg/m3
same,mass density,"[2]; 356.65 K, w1 = 0.05",973.4 ± 0.8 kg/m3
same,mass density,"[2]; 356.65 K, w1 = 0.1",978.7 ± 0.9 kg/m3
same,mass density,"[2]; 356.65 K, w1 = 0.15",987.6 ± 1 kg/m3
same,mass density,"[2]; 356.65 K, w1 = 0.2",996.6 ± 0.9 kg/m3
same,mass density,"[2]; 356.65 K, w1 = 0.3",1016 ± 1 kg/m3
same,mass density,"[2]; 356.65 K, w1 = 0.35",1026.1 ± 0.9 kg/m3
same,mass density,"[2]; 356.65 K, w1 = 0.4",1036.3 ± 0.9 kg/m3
same,mass density,"[2]; 356.65 K, w1 = 0.6",1078 ± 1 kg/m3
O [water] + Cl.Nc1ccccc1,mass density,"[2]; 298.15 K, w2 = 0",997.7 ± 0.3 kg/m3
same,mass density,"[2]; 303.15 K, w2 = 0",996 ± 1 kg/m3
same,mass density,"[2]; 313.15 K, w2 = 0",992 ± 1 kg/m3
same,mass density,"[2]; 323.15 K, w2 = 0",986.6 ± 0.3 kg/m3
same,mass density,"[2]; 333.15 K, w2 = 0",983.1 ± 0.4 kg/m3
same,mass density,"[2]; 343.15 K, w2 = 0",977.3 ± 0.4 kg/m3
same,mass density,"[2]; 353.15 K, w2 = 0",971.8 ± 0.4 kg/m3
same,mass density,"[2]; 356.65 K, w2 = 0",963.9 ± 0.7 kg/m3
